Test results as given in patent publication US11192889B2, “Tetrahydronaphthyridinepentanamide integrin antagonists” (The Rockefeller University, priority 2016, dated 2021).
“And” between values parts separate entries of the source, which are not always exact repeats. Equal values may be shown once.

Experiments:
Type in all cases: cell-based
HEK-293-αVβ3 cells [1] = assay: AP5 Binding Assay; conditions: 10 mM EDTA; average±SD of 17 experiments
Description: (§1) HEK-293 Cells Expressing αVβ3. HEK-293 cells were transfected using lipofectamine 2000 (Invitrogen #11668030) with the cDNA for αV using the pEF1/V5-His A vector and the cDNA for β3 using the vector pcDNA3.1. Cells expressing αVβ3 were identified by their reaction with murine monoclonal antibodies (mAbs) LM609 and 7E3, and stable cell lines were established by repetitive sorting using LM609. […] HEK-293-αVβ3 cells for assays are counted in an automated cell counter (ADVIA 120) and adjusted to values appropriate for each assay.
(§2) AP5 Binding Assay. HEK-293-αVβ3 cells are harvested using 0.05% trypsin 0.5 mM EDTA, washed with HBMT once, and resuspended in HBMT containing 1 mM Mg2+ and 2 mM Ca2+. The cells are counted and adjusted to 0.5×10^6 cells per sample. The compound to be tested and fluorescently labeled mAb AP5 (either Alexa 488 or Alexa 674; 10 μg/mL) are added and incubated for 30 minutes at 37° C. The cells are then washed and analyzed by flow cytometry (BD FACSCalibur) at the appropriate wavelength for detecting the AP5 fluorophore. In each assay, cilengitide (1 μM) and 10 mM EDTA are included as positive controls and untreated cells are used as the negative control. The concentration of the test compound required to induce the expression of 50% of the AP5 expression induced by cilengitide is calculated and defined as the EC50. The EC50 for cilengitide was determined based on the expression induced by EDTA.

HEK-293-αVβ3 cells [2] = biological target: T1, HEK-293-αVβ3 cells (Homo sapiens, UniProt P05106+P06756); assay: αVβ3 Cell Adhesion to Fibrinogen Assay; design: IC50; other: dose reducing by 50% the adhesion of HEK-293-αVβ3 cells to fibrinogen; untreated cells 100% adhesion, 10 mM EDTA 0%; conditions: dose reducing by 50% the adhesion of HEK-293-αVβ3 cells to fibrinogen; separate determinations listed
T1 sequence (P05106 whole entry): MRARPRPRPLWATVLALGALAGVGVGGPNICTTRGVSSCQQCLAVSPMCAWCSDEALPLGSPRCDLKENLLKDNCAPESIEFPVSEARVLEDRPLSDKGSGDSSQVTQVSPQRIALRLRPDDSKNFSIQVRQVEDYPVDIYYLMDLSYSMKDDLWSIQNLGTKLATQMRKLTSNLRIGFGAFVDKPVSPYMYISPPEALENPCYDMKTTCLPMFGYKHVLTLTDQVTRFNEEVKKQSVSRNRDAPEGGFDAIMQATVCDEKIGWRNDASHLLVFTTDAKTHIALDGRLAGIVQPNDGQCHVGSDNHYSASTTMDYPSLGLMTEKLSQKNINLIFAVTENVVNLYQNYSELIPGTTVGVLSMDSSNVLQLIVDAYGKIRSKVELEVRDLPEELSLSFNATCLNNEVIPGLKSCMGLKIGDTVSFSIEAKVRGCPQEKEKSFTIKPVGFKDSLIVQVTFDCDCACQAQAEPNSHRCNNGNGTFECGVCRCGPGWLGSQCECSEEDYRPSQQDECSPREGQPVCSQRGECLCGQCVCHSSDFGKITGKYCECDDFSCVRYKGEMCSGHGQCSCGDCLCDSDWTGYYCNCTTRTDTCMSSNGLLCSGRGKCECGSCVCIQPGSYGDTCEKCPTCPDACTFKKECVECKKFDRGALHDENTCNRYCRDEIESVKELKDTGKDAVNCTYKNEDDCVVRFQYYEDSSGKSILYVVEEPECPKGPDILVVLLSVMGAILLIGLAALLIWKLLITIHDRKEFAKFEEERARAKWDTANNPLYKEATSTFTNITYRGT
T1 sequence (P06756 whole entry): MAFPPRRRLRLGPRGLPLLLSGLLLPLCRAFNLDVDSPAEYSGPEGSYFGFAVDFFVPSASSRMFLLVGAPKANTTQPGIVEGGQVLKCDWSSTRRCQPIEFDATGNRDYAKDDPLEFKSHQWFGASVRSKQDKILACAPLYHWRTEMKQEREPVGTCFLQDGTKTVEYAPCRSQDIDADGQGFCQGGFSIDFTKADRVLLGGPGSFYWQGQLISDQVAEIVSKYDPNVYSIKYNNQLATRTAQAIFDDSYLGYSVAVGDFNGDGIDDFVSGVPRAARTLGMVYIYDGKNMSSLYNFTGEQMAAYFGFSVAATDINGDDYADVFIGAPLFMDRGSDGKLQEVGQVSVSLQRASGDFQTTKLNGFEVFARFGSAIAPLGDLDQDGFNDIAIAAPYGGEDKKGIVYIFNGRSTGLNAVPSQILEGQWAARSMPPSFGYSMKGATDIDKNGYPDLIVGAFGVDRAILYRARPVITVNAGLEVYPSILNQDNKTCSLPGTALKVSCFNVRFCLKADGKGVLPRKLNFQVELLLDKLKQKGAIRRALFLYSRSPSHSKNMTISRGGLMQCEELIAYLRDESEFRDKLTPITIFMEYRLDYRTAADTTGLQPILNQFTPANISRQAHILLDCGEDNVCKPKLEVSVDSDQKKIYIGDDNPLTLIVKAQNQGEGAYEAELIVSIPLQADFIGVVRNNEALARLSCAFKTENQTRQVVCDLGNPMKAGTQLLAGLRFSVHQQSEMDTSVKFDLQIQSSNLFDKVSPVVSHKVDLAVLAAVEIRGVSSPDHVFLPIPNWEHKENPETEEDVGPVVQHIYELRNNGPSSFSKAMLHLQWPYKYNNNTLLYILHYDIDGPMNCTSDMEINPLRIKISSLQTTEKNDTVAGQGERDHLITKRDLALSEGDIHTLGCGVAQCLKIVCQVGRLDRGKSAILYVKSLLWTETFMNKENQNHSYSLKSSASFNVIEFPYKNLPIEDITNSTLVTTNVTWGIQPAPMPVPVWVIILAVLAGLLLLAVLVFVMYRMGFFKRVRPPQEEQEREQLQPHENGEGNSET
Description: as §1
αVβ3 Cell Adhesion to Fibrinogen Assay. Polystyrene 96-well microtiter plates (Costar, 3590) are precoated with 3.5 μg/mL of purified fibrinogen (Enzyme Research Laboratories) in 0.15 M NaCl, 0.01 M Tris/HCL, pH 7.4 for 1 hour at 37° C. The wells are then washed and incubated with HEPES-Buffered Modified Tyrode's solution (HBMT; 0.128 M NaCl, 10 mM HEPES, 12 mM NaHCO3, 0.4 mM NaH2PO4, 2.7 mM KCl, 0.35% bovine serum albumin (Fisher), 0.1% glucose, pH 7.4) for 1 hour at room temperature or overnight at 4° C. Wells are washed with HBMT containing 1 mM Mg2+ and 2 mM Ca2+ and then 50 μL of HEK-293-αVβ3 cells that have been pretreated with the compound to be tested for 20 minutes at room temperature are added to each well at a concentration of 3,000 cells/μL. After 30-32 minutes the wells are washed with HBMT containing Ca2+ and Mg2+ three times and then the adherent cells are lysed and the acid phosphatase activity that is released is measured by: 1. adding phosphatase substrate (Sigma EC 224-246-5) at 2 mg/mL in 0.1 M Na citrate, pH 5.6, 0.1% triton X-100 for 1 hour at room temperature; 2. stopping the reaction by adding 50 μL of 2 M NaOH; and 3. analyzing the samples in a spectrophotometer at 405 nm. In each assay, 10 mM EDTA is used as a positive control and untreated cells are used as a negative control. The IC50 is the dose of test compound that reduces by 50% the adhesion of the HEK-293-αVβ3 cells, taking the results with untreated cells as 100% and the results in the presence of EDTA as 0%. In some instances more than one IC50 determination was made, in which case, results of separate determinations are reported. IC50's were not determined for all compounds in the table; for some of these test compounds the inhibition at specific doses are reported. In some instances, the test compound produced a greater reduction than 10 mM EDTA, and these are shown as negative numbers.

HEK-293-αVβ3 cells [3] = biological target: T1, HEK-293-αVβ3 cells; assay: AP5 Binding Assay; conditions: for activation at 10 µM: relative to AP5 expression induced by cilengitide, read-out: AP5 expression induced at the highest concentration; for EC50: concentration inducing 50% of the AP5 expression induced by 1 μM cilengitide
Description: as §1, §2

SMILES: O=C(O)CN(CCN(CC(=O)O)CC(=O)O)CC(=O)O [EDTA, reference compound]
- AP5 expression (HEK-293-αVβ3 cells [1]): 21.8±5.9 arbitrary fluorescence units

SMILES: O=C(CCCCc1nc2c(cc1C1CC1)CCCN2)NCCC(Nc1nc2ccccc2o1)C(=O)O (centres unmarked) [Example 83, 2-(1,3-benzoxazol-2-ylamino)-4-[5-(3-cyclopropyl-5,6,7,8-tetrahydro-1,8-naphthyridin-2-yl)pentanoylamino]butanoic acid]
- IC50 (HEK-293-αVβ3 cells [2]): 128 nM
- activation at 10 µM (HEK-293-αVβ3 cells [3]): 5%
- EC50 (HEK-293-αVβ3 cells [3]): > 10000 nM

SMILES: O=C(CCCCc1ccc2c(n1)NCCC2)NCCC(C(=O)O)c1cnc2ccccc2c1 (centres unmarked) [Example 84, 2-(quinolin-3-yl)-4-(5-(5,6,7,8-tetrahydro-1,8-naphthyridin-2-yl)pentanamido)butanoic acid]
- IC50 (HEK-293-αVβ3 cells [2]): 121 nM
- activation at 10 µM (HEK-293-αVβ3 cells [3]): 31%
- EC50 (HEK-293-αVβ3 cells [3]): > 10000 nM

SMILES: O=C(CCCCc1ccc2c(n1)NCCC2)NCC[C@@H](Nc1nc2ccccc2o1)C(=O)O [Example 85, (R)-2-(benzo[d]oxazol-2-ylamino)-4-(5-(5,6,7,8-tetrahydro-1,8-naphthyridin-2-yl)pentanamido)butanoic acid]
- IC50 (HEK-293-αVβ3 cells [2]): 151 nM
- activation at 10 µM (HEK-293-αVβ3 cells [3]): 5%
- EC50 (HEK-293-αVβ3 cells [3]): > 10000 nM

SMILES: O=C(CCCCc1ccc2c(n1)NCCC2)NCC[C@@H](NC(=O)c1nc2ccccc2s1)C(=O)O [Example 86, (R)-2-(benzo[d]thiazole-2-carboxamido)-4-(5-(5,6,7,8-tetrahydro-1,8-naphthyridin-2-yl)pentanamido)butanoic acid]
- IC50 (HEK-293-αVβ3 cells [2]): 129 nM and 169 nM
- activation at 10 µM (HEK-293-αVβ3 cells [3]): 7%
- EC50 (HEK-293-αVβ3 cells [3]): > 10000 nM

SMILES: O=C(CCCCc1ccc2c(n1)NCCC2)NCC[C@H](Nc1nc2ccccc2o1)C(=O)O [Example 87, (2S)-2-(1,3-benzoxazol-2-ylamino)-4-[5-(5,6,7,8-tetrahydro-1,8-naphthyridin-2-yl)pentanoylamino]butanoic acid]
- IC50 (HEK-293-αVβ3 cells [2]): 187 nM
- activation at 10 µM (HEK-293-αVβ3 cells [3]): 14%
- EC50 (HEK-293-αVβ3 cells [3]): > 10000 nM

SMILES: O=C(CCCCc1ccc2c(n1)NCCC2)NCC[C@@H](Nc1ncc(-c2ccccc2)cn1)C(=O)O [Example 91, (R)-2-((5-phenylpyrimidin-2-yl)amino)-4-(5-(5,6,7,8-tetrahydro-1,8-naphthyridin-2-yl)pentanamido)butanoic acid]
- IC50 (HEK-293-αVβ3 cells [2]): 534 nM
- EC50 (HEK-293-αVβ3 cells [3]): > 10000 nM

SMILES: O=C(CCCCc1ccc2c(n1)NCCC2)NCC[C@H](Nc1ncc(-c2ccccc2)cn1)C(=O)O [Example 92, (2S)-2-[(5-phenylpyrimidin-2-yl)amino]-4-[5-(5,6,7,8-tetrahydro-1,8-naphthyridin-2-yl)pentanoylamino]butanoic acid]
- IC50 (HEK-293-αVβ3 cells [2]): 201 nM
- EC50 (HEK-293-αVβ3 cells [3]): > 10000 nM
